Biological target: TRPV4 (Homo sapiens, UniProt Q9HBA0)
Experiment: fura […] Ca2+ imaging dose response in human primary monocyte-derived macrophages (endogenous TRPV4); response reduced by TRPV4 siRNA knockdown; EC50 […] (GM-CSF) and […] (M-CSF)
Assay type: cell-based

Sequence of TRPV4 (Q9HBA0 whole entry): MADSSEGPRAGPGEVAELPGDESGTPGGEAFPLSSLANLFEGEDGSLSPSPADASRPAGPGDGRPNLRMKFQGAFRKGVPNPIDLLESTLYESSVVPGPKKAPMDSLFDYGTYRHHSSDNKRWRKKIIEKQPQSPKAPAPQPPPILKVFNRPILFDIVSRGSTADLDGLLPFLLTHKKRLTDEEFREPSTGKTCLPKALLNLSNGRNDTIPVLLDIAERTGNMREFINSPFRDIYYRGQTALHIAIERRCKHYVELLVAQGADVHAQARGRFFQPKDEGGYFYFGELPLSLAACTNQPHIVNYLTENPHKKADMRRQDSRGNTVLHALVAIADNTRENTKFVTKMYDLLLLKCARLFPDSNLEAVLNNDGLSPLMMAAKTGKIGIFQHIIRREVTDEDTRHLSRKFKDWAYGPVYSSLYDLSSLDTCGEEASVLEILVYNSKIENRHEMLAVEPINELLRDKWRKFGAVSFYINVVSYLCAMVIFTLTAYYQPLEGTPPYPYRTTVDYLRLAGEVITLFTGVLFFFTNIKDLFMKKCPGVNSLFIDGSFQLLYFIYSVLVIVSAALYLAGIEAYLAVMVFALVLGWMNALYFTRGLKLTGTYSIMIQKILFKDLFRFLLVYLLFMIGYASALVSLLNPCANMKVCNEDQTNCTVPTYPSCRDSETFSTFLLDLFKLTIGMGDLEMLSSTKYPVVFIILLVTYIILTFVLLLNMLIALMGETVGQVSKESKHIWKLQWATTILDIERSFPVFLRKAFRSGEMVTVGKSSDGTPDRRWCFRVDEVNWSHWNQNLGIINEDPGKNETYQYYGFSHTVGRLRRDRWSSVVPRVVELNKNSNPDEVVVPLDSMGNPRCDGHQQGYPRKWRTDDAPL

CC(C)C[C@H](NC(=O)c1cc2ccccc2s1)C(=O)N1CCN(C(=O)[C@H](CO)NS(=O)(=O)c2ccc(Cl)cc2Cl)CC1 [GSK1016790A]
EC50: 580 nM

Source: paper PMC10563396, “Anti-Inflammatory Role of TRPV4 in Human Macrophages” (ImmunoHorizons, 2023)
